Laboratory results from patent US9265189B2, “Method for reducing damage by harmful organisms in corn cultivation” (SUMITOMO CHEMICAL COMPANY, LIMITED, priority 2012, dated 2016).

What was measured:
Format in all cases: in vivo
Agriotes sordidus = assay: Field test, corn plants damaged by Agriotes sordidus after in-furrow spray (Example 3); conditions: Example section 3: clothianidin 25 g/ha, in-furrow spray of Dantop 50WG aqueous suspension 100 L/ha, corn KUBRIK, 34 days after application; non-treatment section 34.6
Description: A cultivated land was ditched at intervals of 75 cm to a depth of 3 cm from the soil surface, and the furrow was seeded with corn (Zea Mays, variety name: KUBRIK; hybrid variety) at intervals of 17 cm. A seeding density of corn was 78000 seeds/ha. Then, the furrow was spray-treated with an aqueous suspension of a clothianidin water dispersible granule (using a 50% water dispersible granule, trade name: Dantop 50WG, manufactured by Philagro) at 100 L/ha so that the application amount of clothianidin was 25 g/ha, and then a soil on the side of the furrow was gathered together to close the furrow. This was defined as an example section 3. For comparison, a non-treatment section, which was seeded with corn without application of a clothianidin water dispersible granule, was provided. In any section, four places were arranged by a randomized block method, with one place having an area of 54 m^2 (18 m×3 m). 34 days after application of the clothianidin water dispersible granule, the number of plants of corn damaged by Agriotes sordidus in each of the example section 3 and the non-treatment section was investigated, a damage plant rate was calculated in accordance with the following equation, and then an average damage plants rate of the four investigation sections was determined. Damage plant rate(%)=[(number of plants of corn damaged)/(number of plants of corn seeded)]×100

Agriotes spp. [1] = assay: Field test, corn plants damaged by Agriotes spp. after in-furrow spray (Example 2); conditions: Example section 2: clothianidin 50 g/ha, in-furrow spray of Dantop 50WG aqueous suspension 100 L/ha, corn DK 440, 34 days after application; non-treatment section 73.3
Description: Using a pneumatic seeder (disk furrow opener, manufactured by Gaspardo) equipped with a power sprayer (trade name: WJR 2525, manufactured by HONDA), a cultivated land was ditched at intervals of 75 cm to a depth of 3 cm from the soil surface, and the furrow was seeded with corn (Zea Mays, trade name: DK 440; hybrid variety, manufactured by Monsanto) at intervals of […]. A seeding density of corn was 100000 seeds/ha. Then, the furrow was spray-treated with an aqueous suspension of a clothianidin water dispersible granule (using a 50% dispersible granule, trade name: Dantop 50WG, manufactured by Philagro) at 100 L/ha so that the application amount of clothianidin was 50 g/ha, and then a soil on the side of the furrow was gathered together to close the furrow. This was defined as an example section 2. For comparison, a non-treatment section, which was seeded with corn without application of a clothianidin water dispersible granule, was provided. […] 34 days after application of the clothianidin water dispersible granule, the number of plants of corn damaged by Agriotes spp. in each of the example section 2 and the non-treatment section was investigated, a damage plant rate was calculated in accordance with the following equation, and then an average damage plants rate of the four investigation sections was determined. […]

Agriotes spp. [2] = assay: Field test, corn plants damaged by Agriotes spp. after in-furrow spray (Example 1); conditions: Example section 1: clothianidin 50 g/ha, in-furrow spray of Dantop 50WG aqueous suspension 100 L/ha, corn DK 440, 35 days after application; non-treatment section 43
Description: Using a pneumatic seeder (disk furrow opener, manufactured by Gaspardo) equipped with a power sprayer (trade name: WJR 2525, manufactured by HONDA), a cultivated land was ditched at intervals of 75 cm to a depth of 3 cm from the soil surface, and the furrow was seeded with corn (Zea Mays, trade name: DK 440; hybrid variety, manufactured by Monsanto) at intervals of 13 cm. A seeding density of corn was 100000 seeds/ha. Then, the furrow was spray-treated with an aqueous suspension of a clothianidin water dispersible granule (using a 50% dispersible granule, trade name: Dantop 50WG, manufactured by Philagro) at 100 L/ha so that the application amount of clothianidin was 50 g/ha, and then a soil on the side of the furrow was gathered together to close the furrow. This was defined as an example section 1. For comparison, a non-treatment section, which was seeded with corn without application of a clothianidin water dispersible granule, was provided. […] 35 days after application of the clothianidin water dispersible granule, the number of plants of corn damaged by Agriotes spp. in each of the example section 1 and the non-treatment section was investigated, a damage plant rate was calculated in accordance with the following equation, and then an average damage plants rate of the four investigation sections was determined. […]

SMILES: CN/C(=N\[N+](=O)[O-])NCc1cnc(Cl)s1 [clothianidin]
- Damage plant rate (%) (Agriotes sordidus): 1.8%
- Damage plant rate (%) (Agriotes spp. [1]): 7.7%
- Damage plant rate (%) (Agriotes spp. [2]): 0%
